Test results reported in publication PMC6214120 (International Journal of Molecular Sciences, 2018).
Like-named read-outs stand apart in the source and are kept apart here.

Columns and labels:
[1] = test system: chicken; assay: In vivo experiments with BCRP inhibitor Ko143 in chicken; conditions: in vivo experiments with Ko143 as additional BCRP inhibitor were unsuccessful
[2] = Pharmacokinetic studies of FFC in broilers; format: in vivo, Arbor Acres (AA) broilers; conditions: for bioavailability: read-out: F (absolute bioavailability); for AUC(0-t): read-out: AUC0~12h; for half-life: read-out: T1/2β (converted)
Experimental: Ten 4-week and fifteen 8-week old AA broilers were used in this study and divided into five groups (5 birds in each group) as follows: Group I, 4-week old birds given FFC orally with a single dose of 20 mg/kg through crop tube gavage; group II, 8-week old birds given FFC orally with a single dose of 20 mg/kg through crop tube gavage; group III, 4-week old birds given FFC intravenously with a single dose of 10 mg/kg through the left brachialis vein; group IV, 8-week old birds given FFC intravenously with a single dose of 10 mg/kg through the left brachialis vein; group V, 8-week old birds orally given FFC (20 mg/kg) plus gefitinib (100 mg/kg, an inhibitor of BCRP) through crop tube gavage. Groups I, II, III, and IV were used to study the influence of age-dependent BCRP expression on FFC pharmacokinetics. The data from group II and group V were used to further analyze the effects of BCRP on FFC pharmacokinetics. […] Plasma was rapidly harvested by centrifugation at 5000 g for 5 min and stored at −80 °C until assayed. The extraction procedures and HPLC method were modified from the previous method. All plasma samples were analyzed on Thermo fisher U3000 high-performance liquid chromatography (HPLC) system. […] The acetonitrile supernatants were combined, evaporated under nitrogen at 40 °C, and dissolved in 0.2 mL of mobile phase, from which 20 μL was injected into HPLC system. The mobile phase consisted of a mixture of acetonitrile-water at a ratio of 20:80 (v/v). The detection conditions as the follows: wavelength at 224 nm, the column temperature at 35 °C and the flow rate at 1 mL/min. The calibration samples were prepared with eight different FFC concentrations using blank plasma. […] The average of inter- and intra-day precision (RSD) was <11%. […] Pharmacokinetic calculations were performed on each individual set of data using 3p97 practical pharmacokinetic software (Version 97, Chinese Pharmacologic Association, Beijing, China). Least-squares fits were determined for both biexponential (two-compartment model) and single exponential (one-compartment model) equations. The number of exponential terms required to describe the plasma concentration-time data for each boiler chickens was determined by application of Akaike’s Information Criterion (AIC Method). The area under the concentration-time curve (AUC) was calculated according to the linear trapezoidal method.

[3] = Bidirectional transport assay in wild-type MDCK cells; format: in vitro ADME, canine; conditions: dog, FFC 50 μM
Experimental: (§1) Wild-type MDCK cells and MDCK-chAbcg2 cells were seeded into Transwell® inserts (Catalogue number 3460, Corning Coster Corp. Acton, MA, USA) in 12-well plates at a density of 1 × 10^5 cells/insert and cultured for 5 days. The cell layer integrity was tested before transport by measuring transepithelial electrical resistance (TEER) across the apical (AP) and the basolateral (BL) sides of the cell line using a Millicell-ERS epithelial voltometer (Millipore, Burlington, MA, USA). The bidirectional transport experiments were conducted with the transport buffers containing either FFC (50 μM) or the mixture of FFC and gefitinib instead of the blank medium or the medium contain gefitinib (100 μM). After the cells were incubated with transport buffers for 4 h, the samples collected from the receiving sides were submitted for HPLC analysis. The TEER values of each monolayer were checked again at the end of the transport studies to ensure the integrities of cell monolayers during the whole transport analysis. According to FDA guidance a drug with a net efflux ratio that is over 2.0 will be considered as a potential substrate of an efflux pump. The apparent permeability coefficients (Papp) across cell monolayer were calculated as follows: Papp = (dQ/dt)/(A × C0), where A is the area of filter membrane, C0 is the initial concentration of the tested drug, dQ is the amount of transported drug, and dt is time elapsed. The efflux ratio (ER) was calculated from (Papp B→A)/(Papp A→B) and the net efflux ratio (NER) was calculated from […]. Each group has 5 cell monolayers, and the experiment was repeated three times.

[4] = test system: chicken BCRP; assay: Bidirectional transport assay in MDCK-chAbcg2 cells; format: in vitro ADME; conditions: MDCK-chAbcg2 vs MDCK, gefitinib as inhibitor
Experimental: as §1

[5] = test system: chicken BCRP (Abcg2); assay: as above; format: in vitro ADME; conditions: chicken, FFC 50 μM, 4 h
Experimental: as §1

[6] = Arbor Acres (AA) broiler, plasma, iv, 10 mg/kg, intravenous 10 mg/kg, 4-week old broilers
[7] = Arbor Acres (AA) broiler, plasma, iv, 10 mg/kg, intravenous 10 mg/kg, 8-week old broilers
[8] = Arbor Acres (AA) broiler, plasma, po, 20 mg/kg, oral 20 mg/kg, 4-week old broilers
[9] = Arbor Acres (AA) broiler, plasma, po, 20 mg/kg, oral 20 mg/kg, 8-week old broilers
[10] = Arbor Acres (AA) broiler, plasma, po, 20 mg/kg, with gefitinib 100 mg/kg (BCRP inhibitor, co-dosed orally), oral 20 mg/kg, 8-week old broilers administered gefitinib (100 mg/kg)
[11] = oral 20 mg/kg, 4-week old broilers
[12] = oral 20 mg/kg, 4 week-old broilers
[13] = oral 20 mg/kg, 8-week old broilers
[14] = oral 20 mg/kg, 8-week old broilers administered gefitinib (100 mg/kg)
[15] = oral 20 mg/kg, 8-week old broilers with oral gefitinib 100 mg/kg
[16] = oral 20 mg/kg, 8 week old broilers
[17] = MDCK-chAbcg2, with gefitinib (100 μM)
[18] = MDCK-chAbcg2, without gefitinib

## COc1ccc2c3c([nH]c2c1)[C@H](CC(C)C)N1C(=O)[C@H](CCC(=O)OC(C)(C)C)NC(=O)[C@@H]1C3 [Ko143]
[1]
  Toxicity in chicken: observed toxicity in chicken

## CS(=O)(=O)c1ccc([C@@H](O)[C@@H](CF)NC(=O)C(Cl)Cl)cc1 [florfenicol, Florfenicol]
[2]; Arbor Acres (AA) broiler, chicken, plasma, po, with gefitinib 100 mg/kg (BCRP inhibitor, co-dosed orally), oral 20 mg/kg, 8-week old broilers administered gefitinib (100 mg/kg)
  bioavailability: 78.4%
[2]; [6]
  AUC(0-t): 5410 ± 310 ng·h/mL
  half-life: 60 ± 51 min
[2]; Arbor Acres (AA) broiler, plasma, iv, 10 mg/kg, intravenous 10 mg/kg, 4-week old broilers, read-out: Vd
  Vd: 1.51 ± 0.62 L/kg
[2]; [7]
  AUC(0-t): 5110 ± 1890 ng·h/mL
  half-life: 47.4 ± 10.8 min
[2]; Arbor Acres (AA) broiler, plasma, iv, 10 mg/kg, intravenous 10 mg/kg, 8-week old broilers, read-out: Vd
  Vd: 1.18 ± 0.29 L/kg
[2]; Arbor Acres (AA) broiler, plasma, po, 20 mg/kg, oral 20 mg/kg vs i.v. 10 mg/kg, 4-week old broilers
  bioavailability: 79.3%
[2]; Arbor Acres (AA) broiler, plasma, po, 20 mg/kg, oral 20 mg/kg vs i.v. 10 mg/kg, 8-week old broilers
  bioavailability: 48%
[2]; [8]
  Cmax: 3870 ± 960 ng/mL
  Tmax: 37.8 ± 12.6 min
  AUC(0-t): 8580 ± 1880 ng·h/mL
  half-life: 196 ± 72 min
[2]; [9]
  Cmax: 2930 ± 1070 ng/mL
  Tmax: 37.2 ± 11.4 min
  AUC(0-t): 4910 ± 1560 ng·h/mL
  half-life: 56.4 ± 10.2 min
[2]; [10]
  Cmax: 1730 ± 480 ng/mL
  Tmax: 120 ± 84.6 min
  AUC(0-t): 8010 ± 1650 ng·h/mL
  bioavailability: 78.4%
  half-life: 210 ± 201 min
[2]; intravenous 10 mg/kg, 4-week old broilers
  ClB: 27.5 ± 9 mL/min/kg
[2]; intravenous 10 mg/kg, 8-week old broilers
  ClB: 35.7 ± 11.2 mL/min/kg
[2]; oral 20 mg/kg
  Decrease of bioavailability in 8-week old broilers compared with 4-week old birds: 31.3%
[2]; [11]
  ClB: 40.5 ± 8.83 mL/min/kg
  Vd: 3.42 ± 1.18 L/kg
[2]; [12]
  AUC0~12h: 8.58 (µg/mL)·h
  Cl: 2.43 mg/kg/h/(μg/mL)
  Vd: 3.42 (mg/kg)/(µg/mL)
[2]; [13]
  ClB: 73.8 ± 24.3 mL/min/kg
  Vd: 5.64 ± 0.60 L/kg
[2]; [14]
  ClB: 42.8 ± 8.67 mL/min/kg
  Vd: 7.39 ± 2.98 L/kg
[2]; [15]
  AUC0~12h: 8.01 (µg/mL)·h
  Cl: 2.57 mg/kg/h/(μg/mL)
[2]; [16]
  AUC0~12h: 4.91 (µg/mL)·h
  Cl: 4.43 mg/kg/h/(μg/mL)
  Vd: 5.64 (mg/kg)/(µg/mL)
[3]; with gefitinib (100 μM)
  Papp A→B at 4 h, 50 μM: 0.37 ± 0.03 ×10⁻⁶ cm/s
  Papp B→A at 4 h, 50 μM: 0.39 ± 0.01 ×10⁻⁶ cm/s
[3]; without gefitinib
  Papp A→B at 4 h, 50 μM: 0.4 ± 0.04 ×10⁻⁶ cm/s
  Papp B→A at 4 h, 50 μM: 0.4 ± 0.01 ×10⁻⁶ cm/s
[4]
  Substrate status for chicken BCRP (FDA criteria: NER over 2.0 and efflux reversed by inhibitor): substrate of chicken BCRP
[5]; [17]
  Papp A→B at 4 h, 50 μM: 0.37 ± 0.02 ×10⁻⁶ cm/s
  Papp B→A at 4 h, 50 μM: 0.43 ± 0.01 ×10⁻⁶ cm/s
[5]; [18]
  Papp A→B at 4 h, 50 μM: 0.28 ± 0.01 ×10⁻⁶ cm/s
  Papp B→A at 4 h, 50 μM: 0.68 ± 0.04 ×10⁻⁶ cm/s
